Measured values reported in the CheMixHub ionic liquid set.

Experiment: xn = mol fraction of the nth substance listed
Conditions: 100 kPa

C[C@H](N)C(=O)[O-].C[N+](C)(C)CCO + CCO
Conditions | viscosity [mPa·s]
287.88 K, x1 = 1 | 4500
287.97 K, x1 = 0.6071 | 550
288 K, x1 = 0.2012 | 17.5
288.02 K, x1 = 0.1013 | 5.6
288.04 K, x1 = 0.8027 | 1750
288.05 K, x1 = 0.3782 | 89
288.05 K, x1 = 0.5527 | 359
288.05 K, x1 = 0.7056 | 1079
288.09 K, x1 = 0.2903 | 42
288.1 K, x1 = 1 | 5100
288.12 K, x1 = 0.894 | 2875
289.23 K, x1 = 0.6071 | 520
289.25 K, x1 = 0.3782 | 88
289.26 K, x1 = 0.2012 | 17
289.26 K, x1 = 0.8027 | 1625
289.28 K, x1 = 0.1013 | 5.3
289.28 K, x1 = 0.5527 | 339
289.29 K, x1 = 0.7056 | 990
289.31 K, x1 = 0.2903 | 40.6
289.34 K, x1 = 0.894 | 2592
289.96 K, x1 = 1 | 3700
290.21 K, x1 = 1 | 4300
290.48 K, x1 = 0.6071 | 470
290.5 K, x1 = 0.3782 | 85
290.51 K, x1 = 0.2012 | 16.4
290.51 K, x1 = 0.8027 | 1464
290.52 K, x1 = 0.1013 | 5.1
290.52 K, x1 = 0.5527 | 315
290.52 K, x1 = 0.7056 | 900
290.53 K, x1 = 0.2903 | 39.2
290.55 K, x1 = 0.894 | 2319
291.71 K, x1 = 0.6071 | 430
291.72 K, x1 = 0.2012 | 15.7
291.72 K, x1 = 0.3782 | 80
291.73 K, x1 = 0.1013 | 4.9
291.73 K, x1 = 0.2903 | 37.6
291.73 K, x1 = 0.5527 | 291
291.73 K, x1 = 0.7056 | 820
291.73 K, x1 = 0.8027 | 1311
291.74 K, x1 = 0.894 | 2072
292.02 K, x1 = 1 | 3052
292.32 K, x1 = 1 | 3520
292.91 K, x1 = 0.1013 | 4.7
292.91 K, x1 = 0.3782 | 76
292.91 K, x1 = 0.6071 | 394
292.92 K, x1 = 0.2012 | 15
292.92 K, x1 = 0.2903 | 36
292.92 K, x1 = 0.5527 | 268
292.92 K, x1 = 0.7056 | 740
292.92 K, x1 = 0.8027 | 1180
292.92 K, x1 = 0.894 | 1858
294.08 K, x1 = 1 | 2544
294.09 K, x1 = 0.1013 | 4.5
294.09 K, x1 = 0.2012 | 14.3
294.09 K, x1 = 0.2903 | 34.4
294.09 K, x1 = 0.6071 | 360
294.1 K, x1 = 0.3782 | 73
294.1 K, x1 = 0.5527 | 248
294.1 K, x1 = 0.7056 | 670
294.1 K, x1 = 0.8027 | 1065
294.1 K, x1 = 0.894 | 1669
294.41 K, x1 = 1 | 2896
295.27 K, x1 = 0.1013 | 4.4
295.27 K, x1 = 0.2012 | 13.8
295.27 K, x1 = 0.2903 | 33.1
295.27 K, x1 = 0.3782 | 70
295.27 K, x1 = 0.5527 | 231
295.27 K, x1 = 0.6071 | 333
295.27 K, x1 = 0.7056 | 620
295.27 K, x1 = 0.8027 | 970
295.27 K, x1 = 0.894 | 1510
296.14 K, x1 = 1 | 2140
296.45 K, x1 = 0.1013 | 4.2
296.45 K, x1 = 0.2012 | 13.2
296.45 K, x1 = 0.2903 | 31.7
296.45 K, x1 = 0.3782 | 66
296.45 K, x1 = 0.5527 | 216
296.45 K, x1 = 0.6071 | 308
296.45 K, x1 = 0.7056 | 560
296.45 K, x1 = 0.8027 | 880
296.45 K, x1 = 0.894 | 1365
296.48 K, x1 = 1 | 2402
297.63 K, x1 = 0.1013 | 3.97
297.63 K, x1 = 0.2012 | 12.6
297.63 K, x1 = 0.2903 | 30.2
297.63 K, x1 = 0.3782 | 63
297.63 K, x1 = 0.5527 | 200
297.63 K, x1 = 0.6071 | 283
297.63 K, x1 = 0.7056 | 520
297.63 K, x1 = 0.8027 | 800
297.63 K, x1 = 0.894 | 1234
298.2 K, x1 = 1 | 1806
298.54 K, x1 = 1 | 2000
298.81 K, x1 = 0.1013 | 3.81
298.81 K, x1 = 0.2012 | 12.1
298.81 K, x1 = 0.2903 | 29.1
298.81 K, x1 = 0.3782 | 61
298.81 K, x1 = 0.5527 | 188
298.81 K, x1 = 0.6071 | 263
298.81 K, x1 = 0.7056 | 480
